Measurements: US6649634B2, “Substituted N-( indole-2-carbonyl-) amides and derivatives as glycogen phosphorylase inhibitors” (Pfizer, Inc., priority 1995, dated 2003)

melting point: 192 to 192.5 °C
SMILES: CON(C)C(=O)C(O)CNC(=O)c1cc2cc(Cl)ccc2[nH]1 (racemic) [Example 30, 5-Chloro-1H-indole-2-carboxylic acid [(2RS)-hydroxy-2-(methoxy-methyl-carbamoyl)-ethyl]-amide]
